Measured values from ChEMBL document CHEMBL1148244, “Inactivation of gamma-aminobutyric acid aminotransferase by (S)-4-amino-4,5-dihydro-2-furancarboxylic acid does not proceed by the expected aromatization mechanism” (Bioorg Med Chem Lett, 2004).

Target: 4-aminobutyrate aminotransferase (Sus scrofa) (UniProt P80147)
Experiment: Kinact for pyridoxal 5'-phosphate (PLP)-dependent Gamma-amino-N-butyrate transaminase at pH 7.4

Chain of 4-aminobutyrate aminotransferase (Sus scrofa) (P80147 whole entry, looked up): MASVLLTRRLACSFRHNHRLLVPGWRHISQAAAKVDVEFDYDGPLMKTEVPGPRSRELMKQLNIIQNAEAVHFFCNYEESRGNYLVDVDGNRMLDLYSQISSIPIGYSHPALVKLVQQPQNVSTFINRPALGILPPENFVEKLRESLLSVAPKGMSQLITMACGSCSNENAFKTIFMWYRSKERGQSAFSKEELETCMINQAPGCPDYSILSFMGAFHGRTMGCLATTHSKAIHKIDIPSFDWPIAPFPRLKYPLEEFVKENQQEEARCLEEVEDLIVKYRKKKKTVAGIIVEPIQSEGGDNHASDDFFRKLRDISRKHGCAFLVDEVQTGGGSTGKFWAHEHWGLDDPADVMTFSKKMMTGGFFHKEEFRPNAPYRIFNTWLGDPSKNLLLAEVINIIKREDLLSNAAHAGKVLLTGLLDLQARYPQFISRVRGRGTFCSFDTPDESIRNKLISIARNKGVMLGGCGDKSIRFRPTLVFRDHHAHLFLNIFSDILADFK

Compound: NC1C=C(C(=O)O)OC1 (stereo unspecified)
- K inact: 2.4 min⁻¹
